Structures can show the parent of a compound that is named as a salt. Marks after values point to notes of the source that are not given here.

17 molecules from US20040058980A1, “Useful aroyl pyrrole heteroaryl methanones and methanols” (priority 2001, published 2004) can be followed below.

The test system of one data set is toxic extensor seizure. In words: Mouse maximal electroshock test (MES), anticonvulsant model. In kind it is in vivo. To be noted: for MES Response, number of mice protected/number of mice tested: oral, 300 mpk. As to the method: Procedure for Testing in Mouse Anticonvulsant Model
The activity of the present compounds as anticonvulsant agents was determined using a standard mouse “maximal electroshock test” (MES). In this test, activity was indicated by a block of the […] extensor seizure, as described by Swinyard, et al. (J. Pharmacol. Exptl. Therap., 1952, 106, 319). A more recent description of current anticonvulsant drug screening is given in Swinyard, et al., in Epilepsia, 1978, 19, 409.
The anticonvulsant activity of the instant compounds is shown in Table 5 and was evaluated according to the Swinyard (1952) method. The abbreviations used in the table have the following meanings: mpk refers to the dose orally administered in “mg per Kg;” and, ED50 refers to the “50% Effective Dose” orally administered in mpk. The values marked by an * represent the number of mice protected/number of mice tested; therefore, a value of 3/3 represents that the number of mice protected matched the number of mice tested at the indicated dose.
Background: Protection in the maximal electroshock model is a classic sign of anticonvulsant action.

Data set [1] has as its system voltage-gated sodium channels. In words: [14C]guanidinium flux assay, veratridine-stimulated SK-N-SH cells. The class given is cell-based. The note with it: 100 μM compound, 100 μM veratridine. As to the method: Screening Assay for Voltage-Gated Sodium Channel Antagonists
[^14C] Guanidinium Flux Assay
SK-N-SH neuroblastoma cells were maintained in a propagation medium containing modified Eagle's medium and 10% (v/v) fetal bovine serum and were incubated at 37° C. in a 5% CO2 atmosphere. Only cells with fewer than 20 passages were used in each assay. All drugs were prepared in DMSO, and the final concentration of solvent was less than 0.1% (v/v). Veratridine, a toxin that selectively promotes persistent activation of voltage-gated sodium channels, served as the stimulus.
SK-N—SH cells were plated at 1×10^5 cells/well in 96-well Cytostar-T microscintillating plates in propagation medium and experiments were performed 6-7 days after plating. Prior to assay, the SK-N-SH cells were washed twice with assay buffer containing 50 mM HEPES (pH 7.45), 5.4 mM potassium chloride, 0.8 mM magnesium chloride, 130 mM choline chloride, 5.5 mM glucose and 0.1 mg/mL bovine serum albumin. Next, the plates were allowed to equilibrate for 10 min at 37° C. in assay buffer. […] The 96-well dosing plate was prepared by mixing 25 μL of a drug/assay buffer solution per well with 25 μL of 0.7 μCi/mL [^14C]guanidine hydrochloride in assay buffer. […] The plates were incubated for 1 hr at room temperature and the radioactivity was counted in a 1450 Microbeta scintillation counter. […]

The subject of another data set is mechanical allodynia. In words: Chung Model (spinal nerve ligation), mechanical allodynia with von Frey hairs. The note with it: rat; for Chung Model result in words (IA) / % MPE (Maximum Possible Effect) in the Chung Model: oral, screening dose (not given); for ED50 in the Chung Model: orally administered. The class given is in vivo. Also on record: key to Chung Model result in words (IA): IA: inactive at the screening dose. An excerpt: Procedure for Testing Antiallodynic Effect
The procedure used to detect the antiallodynic effect of a compound of the present invention for which there is a good correlation with human efficacy for the treatment of pain is the procedure for the measurement of allodynia found in the Chung Model (Kim S. H. and Chung J. M., An Experimental Model for Peripheral Neuropathy Produced by Segmental Spinal Nerve Ligation in the Rat, Pain, 1992, 50, 355-363). The antiallodynic effect of the composition of the present invention in the Chung Model is expressed in % MPE (Maximum Possible Effect).
Male Sprague-Dawley rats, weighing approximately 200 g each were anesthetized with isoflurane. The spinal nerve at the level of L5 was exposed through an incision just left of the dorsal midline and tightly ligated with 6-0 silk. At various times after surgery, animals were tested for mechanical allodynia with von Frey hairs (monofilaments which are calibrated to bend under a certain amount of pressure, ranging from 0.41 to 15.1 g). In order to calculate a paw withdrawal threshold (PWT), tactile allodynia was measured by recording the pressure at which the affected paw was withdrawn from graded stimuli according to the procedure of S. R. Chaplan, J. W. Pogrel, T. L. Yaksh, Role of Voltage-Dependent Calcium Channel Subtypes in Experimental Tactile Allodynia, J. Pharmacol. Exp. Ther., 1994, 269, 1117-1123. Normal rats can withstand at least 15 g of pressure without responding. Operated rats, however, can respond to as little as 0.25 g of pressure. The surgery was deemed successful if the animal responded with a PWT of less than 4 g of pressure applied to the affected paw. […] The PWT was used to calculate the % maximal possible effect (% MPE) according to the formula:
% MPE=100×[(PWT−CT)/(CO−CT)];
wherein PWT is defined as Paw Withdrawal Threshold, CT is Control Threshold, and CO is Cut Off (defined as 15 g).
The sham operation consisted of a similar surgery; the spinal nerve was visualized without being ligated.
Compounds selected from Formula (I) and Formula (II) were tested for activity in treating or modulating neuropathic pain by being dissolved or suspended in either water or hydroxypropyl methylcellulose, respectively. […] were fasted overnight prior to dosing. Animals were orally dosed and dosage volumes were calculated on a 4 mL/kg basis.

In general, melting point refers to the temperature of the solid-liquid transition. For the molecule `Cc1c(C(O)c2ccncc2)c(C)n(C)c1C(=O)c1ccc(Cl)cc1` (stereo not drawn) (as salt: hydrochloride) [Cpd 18, (4-Chlorophenyl)-[4-(hydroxypyridin-4-yl-methyl)-1,3,5-trimethyl-1H-pyrrol-2-yl]methanone], the melting point fell in the range of 174 to 176 °C.
The same measure, in the same setting: to `Cn1cc(C(=O)c2ccccn2)cc1C(=O)c1ccc(Cl)cc1` [Cpd 6, [5-(4-Chlorobenzoyl)-1-methyl-1H-pyrrol-3-yl]pyridin-2-yl-methanone] belongs 138 to 139 °C.
In turn, `Cn1cc(C(=O)c2ccc3ccccc3c2)cc1C(=O)c1cccnc1` [Cpd 8, [1-Methyl-5-(pyridine-3-carbonyl)-1H-pyrrol-3-yl]naphthalen-2-yl-methanone] had a melting point of 132 to 133 °C. In the data set with toxic extensor seizure, the “MES Response, number of mice protected/number of mice tested” value is reported as 0/1* @ 300 mpk.
In the case of `Cn1cc(C(O)c2ccncc2)cc1C(=O)c1ccc(Cl)cc1` (stereo not drawn) [Cpd 12, (4-Chlorophenyl)-[4-(hydroxypyridin-4-yl-methyl)-1-methyl-1H-pyrrol-2-yl]-methanone], the melting point fell in the range of 145 to 146 °C. The “% GFI (% guanidinium flux inhibition) @ 100 μM” value in data set [1] was 4 @ 100%.
In the case of `Cn1cc(C(=O)c2cnc[nH]2)cc1C(=O)c1ccc(Cl)cc1` [Cpd 13, (4-Chlorophenyl)-[4-(3H-imidazole-4-carbonyl)-1-methyl-1H-pyrrol-2-yl]methanone], the melting point fell in the range of 198 to 200 °C. The “Chung Model result in words (IA)” value with mechanical allodynia is recorded as “IA”.
`Cc1ccc(C(=O)c2cc(C(=O)c3ccncc3)cn2C)cc1.Cl` [Cpd 3, [1-Methyl-5-(4-methyl benzoyl)-1H-pyrrol-3-yl]pyridin-4-ylmethanone Hydrochloride] yielded a melting point of 134 to 136 °C.
Molecule `Cl.Cn1cc(C(=O)c2ccncc2)cc1C(=O)c1cccs1` [Cpd 4, [1-Methyl-5-(thiophene-2-carbonyl)-1H-pyrrol-3-yl]pyridin-4-ylmethanone Hydrochloride] came in with a melting point of 243 to 245 °C. Also, in the data set with mechanical allodynia, the “Chung Model result in words (IA)” value is reported as “IA”. Besides, in the data set on toxic extensor seizure, the “MES Response, number of mice protected/number of mice tested” value is 0/1* @ 300 mpk.
In turn, `Cn1cc(C(=O)c2ccnc(Cl)c2)cc1C(=O)c1ccc(Cl)cc1` [Cpd 19, (4-Chlorophenyl)-[4-(2-chloropyridine-4-carbonyl)-1-methyl-1H-pyrrol-2-yl]methanone] had a melting point of 182 to 184 °C.
On to `Cn1cc(C(=O)c2cc[n+]([O-])cc2)cc1C(=O)c1ccc(Cl)cc1` [Cpd 15, (4-Chlorophenyl)-[1-methyl-4-(1-oxypyridine-4-carbonyl)-1H-pyrrol-2-yl]methanone], for which the “% MPE (Maximum Possible Effect) in the Chung Model” value in the data set with mechanical allodynia was determined as 7.9%.
With `Cn1cc(C(=O)c2ccc(F)cc2)cc1C(=O)c1ccncc1` [Cpd 11, (4-Fluorophenyl)-[1-methyl-5-(pyridine-4-carbonyl)-1H-pyrrol-3-yl]methanone], the melting point was in the range of 155 to 157 °C. The “MES Response, number of mice protected/number of mice tested” value in the data set with toxic extensor seizure is recorded as 0/1* @ 300 mpk.
Taken in the same sequence, the figures for `Cn1cc(C(=O)c2ccc(F)cc2)cc1C(=O)c1ccccn1` [Cpd 10, (4-Fluorophenyl)-[1-methyl-5-(pyridine-2-carbonyl)-1H-pyrrol-3-yl]methanone] were 159 to 161 °C and 0/1* @ 300 mpk.
With `Cn1cc(C(=O)c2ccncc2)cc1C(=O)c1ccc(Cl)cc1` [Cpd 1, [5-(4-Chlorobenzoyl)-1-methyl-1H-pyrrol-3-yl]pyridin-4-ylmethanone], the melting point fell in the range of 174 to 175 °C. Also, the “ED50 in the Chung Model” value in the data set on mechanical allodynia is reported as “ED50 = 22 mpk”. Also, in the data set on toxic extensor seizure (orally administered), the “MES Response ED50” value is given as “ED50 = 156.97 mpk”.
In turn, `Cn1cc(C(=O)c2ccncc2)cc1C(=O)c1ccccc1` [Cpd 2, (5-Benzoyl-1-methyl-1H-pyrrol-3-yl) pyridin-4-ylmethanone] yielded a melting point of 127 to 129 °C.
Regarding `Cl.Cn1cc(C(=O)c2cccnc2)cc1C(=O)c1ccc(Cl)cc1.Cn1cc(C(=O)c2cccnc2)cc1C(=O)c1ccc(Cl)cc1.O` [Cpd 5, [5-(4-Chlorobenzoyl)-1-methyl-1H-pyrrol-3-yl]pyridin-3-ylmethanone Hydrochoride Hydrate [2:1:1]], the “% MPE (Maximum Possible Effect) in the Chung Model” value in the data set with mechanical allodynia is reported as 9%.
As to `Cn1cc(C(=O)c2ccc(Cl)cc2)cc1C(=O)c1ccc(Cl)nc1` [Cpd 9, (4-Chlorophenyl)-[5-(6-chloropyridine-3-carbonyl)-1-methyl-1H-pyrrol-3-yl]methanone], the melting point lay in the range of 150 to 152 °C.
As for `Cl.Cn1cc(C(=O)c2ccc(F)cc2)cc1C(=O)c1cccnc1` [Cpd 7, (4-Fluorophenyl)-[1-methyl-5-(pyridine-3-carbonyl)-1H-pyrrol-3-yl]methanone Hydrochloride], the melting point lay within 220 to 223 °C. Also, the “ED50 in the Chung Model” value in the data set with mechanical allodynia is reported as “ED50 = 22 mpk”.
`Cc1c(C(=O)c2ccc(F)cc2)c(C)n(C)c1C(=O)c1cccnc1` [Cpd 17, (4-Fluorophenyl)-[1,2,4-trimethyl-5-(pyridine-3-carbonyl)-1H-pyrrol-3-yl]methanone]: the melting point lay within 85 to 88 °C.
